# Marks after values point to notes of the source that are not given here.
# Columns and labels:
# [1] = test system: Streptozotocin (STZ) induced diabetic rats; assay: Study 2: HCQ and its combination with Losartan in comparison with anti-diabetic control (Glimepiride) in renal damage; format: in vivo, Wistar rats
# Experimental: The Efficacy of the drugs was tested in two different models, one involving comparison with diabetic control (i.e. Diabetic Rats not treated with any medication) and the other involving comparison with the anti-diabetic control group (i.e. Diabetic rats administered Glimepiride) in two separate studies. 30 Wistar rats of either sex weighing 150-250 g were divided randomly into 5 groups consisting of 6 animals each. Diabetes was induced in rats by single administration of Streptozotocin (STZ)(55 mg/kg/i.p) dissolved in 0.1 M-citrate buffer, pH 4.5. Group 1 (normal control) consisted of normal rats that neither received streptozotocin nor any test drug; Group 2 served as Anti-Diabetic control wherein diabetic rats were treated with antidiabetic drug Glimepiride. Group 3 was diabetic rats treated with Losartan (11 mg/kg); Group 4 was diabetic rats treated with Hydroxychloroquine (45 mg/kg) and Group 5 was diabetic rats treated with combination of Hydroxychloroquine (45 mg/kg) and Losartan (11 mg/kg). The study drugs were dissolved/suspended in distilled water and administered orally once a day for eight weeks. The diabetes mellitus induced nephropathy was assessed by estimating the level of serum creatinine and total serum protein content after completion of eighth week of study. TBARS and Total Protein were measured as markers of renal oxidative stress in Kidney Homogenate after completion of eighth week of study.
# [2] = test system: STZ induced diabetic nephropathy in rats; assay: Study 4: HCQ and its combination with Losartan, Telmisartan, Azilsartan and Ramipril, with Glimepiride control; format: in vivo, Wistar rats; details: dose mg/kg: HCQ 70, GLM 1
# Experimental: The methods described in Terri et al, Diabetes Volume, 1997, 46:1612-1618, and Takashi et al, Jpn J. Pharmacol, 1997, 75, 59-64, were followed for inducing Diabetes in rats by injecting Streptozotocin. The Efficacy of the drugs was tested in two different models, one involving comparison with diabetic control (i.e. Diabetic Rats not treated with any medication) and the other involving comparison with the anti-diabetic control group (i.e. Diabetic rats administered Glimepiride) in two separate studies.
# Wistar rats of either sex weighing 150-200 g were divided randomly into 28 groups consisting of 6 animals each. Diabetes was induced in rats by single administration of streptozotocin (55 mg/kg/i.p) dissolved in 0.1 M-citrate buffer, pH 4.5. Group 1 (normal control) consisted of normal rats that neither received streptozotocin nor any test drug; Group 2 served as Diabetic control; Group 3 was diabetic rats treated with Hydroxychloroquine (35 mg/kg); Group 4 was diabetic rats treated with Hydroxychloroquine (45 mg/kg) and Group 5 was diabetic rats treated with Hydroxychloroquine (70 mg/kg); Group 6 was diabetic rats treated with Losartan (5.5 mg/kg); Group 7 was diabetic rats treated with Losartan (11 mg/kg); Group 8 was diabetic rats treated with combination of Losartan (5.5 mg/kg) and Hydroxychloroquine (45 mg/kg); Group 9 was diabetic rats treated with combination of Losartan (11 mg/kg) and Hydroxychloroquine (35 mg/kg); Group 10 was diabetic rats treated with Ramipril (0.6 mg/kg); Group 11 was diabetic rats treated with Ramipril (0.3 mg/kg); Group 12 was diabetic rats treated with combination of Ramipril (0.6 mg/kg) and Hydroxychloroquine (35 mg/kg); Group 13 was diabetic rats treated with combination of Ramipril (0.3 mg/kg) and Hydroxychloroquine (45 mg/kg); Group 14 was diabetic rats treated with combination of Ramipril (0.6 mg/kg) and Hydroxychloroquine (45 mg/kg); Group 15 was diabetic rats treated with combination of Ramipril (0.3 mg/kg) and Hydroxychloroquine (35 mg/kg); Group 16 was diabetic rats treated with Telmisartan (9.5 mg/kg); Group 17 was diabetic rats treated with Telmisartan (4.5 mg/kg); Group 18 was diabetic rats treated with combination of Telmisartan (9.5 mg/kg) and Hydroxychloroquine (35 mg/kg); Group 19 was diabetic rats treated with combination of Telmisartan (4.5 mg/kg) and Hydroxychloroquine (45 mg/kg); Group 20 was diabetic rats treated with combination of Telmisartan (9.5 mg/kg) and Hydroxychloroquine (45 mg/kg); Group 21 was diabetic rats treated with combination of Telmisartan (4.5 mg/kg) and Hydroxychloroquine (35 mg/kg); Group 22 was diabetic rats treated with Azilsartan (4.5 mg/kg); Group 23 was diabetic rats treated with Azilsartan (2.5 mg/kg); Group 24 was diabetic rats treated with combination of Azilsartan (4.5 mg/kg) and Hydroxychloroquine (35 mg/kg); Group 25 was diabetic rats treated with combination of Azilsartan (2.5 mg/kg) and Hydroxychloroquine (45 mg/kg); Group 26 was diabetic rats treated with combination of Azilsartan (4.5 mg/kg) and Hydroxychloroquine (45 mg/kg); Group 27 was diabetic rats treated with combination of Azilsartan (2.5 mg/kg) and Hydroxychloroquine (35 mg/kg); Group 28 served as Anti-Diabetic control wherein diabetic rats were treated with antidiabetic drug Glimepiride (GLM) (1 mg/kg).
# The study drugs were dissolved/suspended in vehicle and administered orally once a day for eight weeks. The diabetes mellitus induced nephropathy was assessed by estimating the level of serum urea, serum creatinine and total serum protein content after completion of eighth week of study. TBARS, GSH and Total Protein were measured as markers of renal oxidative stress in Kidney Homogenate after completion of eighth week of study. Blood glucose levels were also assessed at weekly interval.
# [3] = Glimepiride 8 mg/kg alone (antidiabetic control) or with Losartan 11 mg/kg and/or Hydroxychloroquine 45 mg/kg, oral once daily
# [4] = after 8th week, Glimepiride 8 mg/kg alone or with Losartan 11 mg/kg and/or Hydroxychloroquine 45 mg/kg
# [5] = kidney homogenate, after 8th week, Glimepiride 8 mg/kg alone or with Losartan 11 mg/kg and/or Hydroxychloroquine 45 mg/kg
# [6] = kidney homogenate, after 8th week
compound,measurement,setting,value
CCC1=C(C)CN(C(=O)NCCc2ccc(S(=O)(=O)NC(=O)N[C@H]3CC[C@H](C)CC3)cc2)C1=O [Glimepiride],Serum Creatinine after 8th week,[1]; [3],3.17 mg/dL
same,Serum Creatinine after 8th week (% Control),[1]; [3],(100) % Control
same,Total Serum Protein Levels after 8th week,[1]; [3],4.73 g/dL
same,Total Serum Protein Levels after 8th week (% Control),[1]; [3],(100) % Control
same,Total Protein in Kidney Homogenate (% Control),[1]; [4],(100) % Control
same,Total Protein in Kidney Homogenate Mean,[1]; [4],926.67 µg/mL
same,TBARS (% Control),[1]; [5],(100) % Control
same,TBARS Mean,[1]; [5],0.82 nM/mg
same,HDL,[2]; after 8th week,29 ± 1.41 mg/dL
same,TC,[2]; after 8th week,142 ± 2.68 mg/dL
same,TG,[2]; after 8th week,96.5 ± 2.35 mg/dL
same,Glucose Day1,"[2]; blood, Day1",276.83 ± 19.14 mg/dL
same,Glucose Day14,"[2]; blood, Day14",216.67 ± 18.44 mg/dL
same,Glucose Day28,"[2]; blood, Day28",179.17 ± 7.36 mg/dL
same,Glucose Day42,"[2]; blood, Day42",159 ± 6.07 mg/dL
same,Glucose Day56,"[2]; blood, Day56",149.17 ± 7.83 mg/dL
same,GSH,[2]; [6],2.36 ± 0.64 nM/mg
same,TBARS,[2]; [6],0.5 ± 0.13 nM/mg
same,Total protein kidney,[2]; [6],856.83 ± 18.18 µg/mL
same,Creatinine,"[2]; serum, after 8th week",3.21 ± 0.23 mg/dL
same,Total protein,"[2]; serum, after 8th week",4.8 ± 0.18 g/dL
same,Urea,"[2]; serum, after 8th week",43 ± 2.1*^ mg/dl

# Reference: patent publication US20160030415A1, “TREATMENT AND PROPHYLAXIS OF KIDNEY DISEASES” (priority 2013, published 2016)
